The text below walks through data of patent US9607202B2, “Methods of generating trophectoderm and neurectoderm from human embryonic stem cells” (UNIVERSITY OF PITTSBURGH—OF THE COMMONWEALTH SYSTEM OF …, priority 2009, dated 2017).

The test system of data set [1] is pluripotent hESCs, line H7. Put plainly: TE-induction and lineage selectivity of hESCs by transcription factor immunostaining (CDX2, brachyury, GATA6, OCT4). Format: cell-based, human. Here is the method:
Pluripotent hESCs, line H7, were grown on mitomycin-treated MEFs (GlobalStem) at normal-density (120,000 cells/6 cm^2), maintained in DSR media (Table 1), and passaged weekly using Collagenase IV (Invitrogen/Gibco) and StemPro®EZPassage™ (Invitrogen) as directed. Cell colonies were briefly spun, resuspended in DSR, and plated onto normal density MEFs in CM (Table1). For TE-directed differentiation, hESCs were passaged at 1:5 dilution onto low-density MEFs (30,000 cells/6 cm^2) using DSR media minus FGF2 supplemented with BMP4 (Invitrogen, PHC7914) 100 ng/mL. Media was changed daily.
Feeder-free hESCs were grown on Geltrex (Invitrogen)-coated plates in StemPro (Invitrogen), passaged weekly with Collagenase IV or Accutase (StemCell Technologies) as directed, resuspended in StemPro and plated onto Geltrex-coated plates. For TE-directed differentiation pluripotent hESCs maintained in StemPro or in Erb's Minimal Induction Media (EMIM) were passaged onto feeder-free, Geltrex-coated plates into respective basal media supplemented with the activin A antagonist, SB431542 (10 uM), and/or BMP4 (100 ng/mL or 500 ng/mL) as indicated. Media was changed daily. Terminal STB differentiation was accomplished by culturing hESCs in EMIM+SB+100 ng/mL BMP4 for 14 days.
In PBS, cell colonies were fixed with 2% paraformaldehyde, permeabilized with 1% Triton X-100 (Sigma, St. Louis Mo.), and non-specific antibody binding blocked with 10% goat serum. Primary antibodies (Table 2) were diluted in 1% goat serum, spun briefly, and incubated overnight at 37° C. After a wash in PBS-Tween 0.05% a species-specific fluorescent secondary antibody (prepared as above) was added for 60 min at 37° C. Cells were washed in PBS-Tween 0.05%, incubated in Hoechst […] (1:10,000), and mounted in Gelvatol polyvinyl alcohol-based media (Sammak et al., 1987).
Nuclear labeling (Hoechst 33342) facilitates automated image segmentation for counting cell number. Since pluripotent hESCs can differentiate along multiple lineages, TE-differentiation was determined by immunostaining for transcription factors localized to the cell's nucleus or cytoplasm (Table 2). Four color microscopy permits co-labeling of cells with markers of pluripotent hESCs (OCT4), TE cells (CDX2), and alternative markers for early differentiation including neurectoderm (nestin), mesoderm (brachyury), or extraembryonic endoderm
(GATA6). TE-induction was determined by two criteria: 1) the percentage of all cells that were CDX2-positive and the fold change of CDX2-nuclear intensity over control, unstimulated cells. […] TE selectivity was determined by a significant percentage of CDX2-positive cells and a suppression of the percentage of nestin-, brachyury-, and GATA6-positive cells.
96-well Microplates were scanned using the 5 or 10× objective on the ArrayScan V Automated image analysis was performed using the Compartmental Analysis BioApplication using Hoechst for identification of nuclei and various transcription factor antibodies (Table 2). Nuclear-specific fluorescence intensity was determined from approximately 300 single cells per well from 3-6 independent wells to produce a well-average nuclear intensity for each measurement Mean and standard deviation were calculated from multiple wells. Fold change of the mean intensities were normalized against matched unstimulated external controls, usually the pluripotent condition, to divide out differences due to efficiency of antibody-antigen binding and chromophore quantum yield. […] Select conditions are additionally compared in bar graph format to show standard deviations and T-tests.

Data set [2] deals with hESCs. Put plainly: hESC viability and OCT4 expression in minimal induction media. Format: cell-based, human.
Text: Thus, to maintain compatibility with StemPro-cultured hESC, a DMEM/F12-based minimal induction media (MIM, Table 1) was developed by testing short-term hESC viability (FIG. 7) and OCT4 expression (FIG. 2) after systematically reintroducing cell survival, but not pluripotency, components.
One criterion for derivation of a minimal induction media was that hESCs would be viable and continue to express the OCT4 pluripotency marker. […] A second criterion for the derivation of a minimal induction media was that hESC would remain competent to differentiate.
Another data set deals with hESCs (line UCO6 (HSF6)). Put plainly: Neuronal differentiation of hESCs on different surfaces. Format: cell-based, human. Here is the method: All coverslips (Fisher scientific, Pittsburgh, Pa.) were adhered onto the bottom of 24-well plate with Kwik Sil (World Precision Instruments, Inc., Sarasota, Fla.). Before cell seeding, the surface of coverslips were sterilized under UV for 30 min, and then immersed into PBS for 30 min. Laminin (BD Biosciences, San Jose, Calif.) coated glass coverslips were also prepared as control substrates for cell culture.
hESCs, line HSF6 obtained from the University of California-San Francisco and WiCell, respectively were approved by the University of Pittsburgh ESCRO committee with IRB exempt approval. hESCs were maintained in ES-DMEM high glucose with 20% KSR, 1% MEM NEAA (WiCell Research Institute, Madison, Wis.), Pen/Strep (10,000 U/10,000 ug), 1% L-Glutamine (2 mM), and 8 ng/mL bFGF (Invitrogen, Carlsbad, Calif.), and passaged in 50-100 cell clusters as recommended. hESCs were grown on mitomycin-treated MEFs prepared from 14-day CF-1 embryos. Media was changed every other day and colonies were mechanically passaged every […] with a Pasteur pipette. […]
(§1) Neuronal differentiation was detected by anti-βIII tubulin for hESCs, anti-NF200 for rNSCs. […]

The test system of the next data set is rNSCs. Put plainly: Neuronal differentiation of rNSCs cultured on different surfaces. Format: cell-based, rat. The protocol:
All coverslips (Fisher scientific, Pittsburgh, Pa.) were adhered onto the bottom of 24-well plate with Kwik Sil (World Precision Instruments, Inc., Sarasota, Fla.). Before cell seeding, the surface of coverslips were sterilized under UV for 30 min, and then immersed into PBS for 30 min. Laminin (BD Biosciences, San Jose, Calif.) coated glass coverslips were also prepared as control substrates for cell culture. […]
as §1
For rNSCs, neuronal cells (NF200 positive) were counted on the whole coverslips and averaged values across all coverslips were presented as mean±SD. Total cell number was calculated from the number of nuclei. Cell nuclei were counted on ten randomly selected images, averaged, divided by image area and then multiplied by the area of coverslip. […] Cell density was calculated by dividing values of cell number by the image area. Neurite length was measured using Image J and plug-in Neuron J. Length of the primary neurite and all neurites of each cell in each group was measured by tracing the neurites of NF200 positive cells with the tracing algorithm contained in Neuron J. Primary neurite was defined as the longest process out of cell body. […]

Data set [3] has as its system hESCs. Put plainly: Terminal differentiation to syncytia (percentage of bi- or multi-nucleated cells). Format: cell-based, human. To be noted: neurectoderm culture conditions induced by noggin.
The next data set deals with hESC. The data set is described as follows: Neurectoderm differentiation from hESCs in noggin media. Format: cell-based, human. To be noted: small colonies from StemPro. Here is the method:
There are several laboratories that have applied the BMP4 antagonist noggin for differentiation of hESC to neurectoderm or neural stem cells (Ying, Stavridis et al. 2003; Gerrard, Rodgers et al. 2005; Yao, Chen et al. 2006; Cohen, Itsykson et al. 2007). Here, small colonies grown in StemPro are used as the starting material. Cells were plated in StemPro media or neural differentiation media (DMEM/F12 media supplemented with N2/B27). After each day of growth, colonies with the smallest colonies were changed into Noggin media. When colonies grown in noggin had differentiated along a neurectoderm lineage, the cells were fixed for immunostaining. If the colonies had not differentiated, the media was changed and the cells remained in Noggin media for another day. The process was repeated each day for 6-7 days. Cells were immunostained with the following antibodies: Pax6 mouse (Santa Cruz), Otx2 rabbit (Abeam), Nestin mouse (Covance), Alexa 488 goat anti mouse green, Cy3 goat anti rabbit red, Cy5 goat anti mouse far red.

[4] abbreviates: short-term treatment in StemPro (SB or low-dose BMP4 alone).

For “BMP4: bone morphogenic protein (BMP4), TGFβ superfamily member”, in data set [1] (100 ng/mL BMP4 in MIM), the “fraction of cell population induced to non-TE lineages” value is “over half of the cell population”. Also, the “TE-induction efficiency as frequency of CDX2 staining” value (“TE-induction efficiency as frequency” for short) in data set [1] (BMP4, monolayer colonies, DSR/MEF culture (low density MEFs minus FGF2), 7 days) is 3.6%. Further, in data set [1] (BMP4, multilayer colonies, DSR/MEF culture, 7 days), the “TE-induction efficiency as frequency” value stood at 44.4%. In data set [1] (BMP4 added to StemPro for 48 hours), the “increase in percent brachyury (T) positive cells” value is 6 fold. In addition, the CDX2 induction entry in data set [1] (BMP4 alone 500 ng/mL in EMIM, day 2) was “Significant CDX2 induction”. For the same molecule, in data set [1] (BMP4 in MIM), the “extraembryonic endoderm (GATA6) positive cells” value is reported as around 20% and the “mesoderm (brachyury) positive cells” value is reported as “over 40%”. Also, in data set [1] (BMP4 supplementation on low density MEFs), the OCT4 expression result was “decreased OCT4 expression”. In addition, the CDX2 expression result in data set [1] (BMP4 supplementation to EMIM, culture day 7) is recorded as “induced diffuse CDX2 expression”. Moreover, in data set [1] (BMP4 supplementation to MIM), the “GATA6 over MIM alone” value is recorded as “did not increase”, the “brachyury over MIM alone” value is on record as “did not increase” and the “fold induction of CDX2 over MIM alone” value is “significantly increased”. Also, the “TE-induction efficiency as frequency” value in data set [1] (StemPro containing BMP4, MEF-free, 4 days) is given as 93.7%. Also, in data set [1] (addition of BMP4 to StemPro), the brachyury expression entry is given as “dose-dependent, statistically significant increase”. For the same molecule, the brachyury expression result in data set [1] (setting [4]) is listed as “significant increase in brachyury expression”.

Take `OCCS` [β-mercaptoethanol]: the hESC survival entry in the data set with hESCs [2] (addition to minimal induction media with or without heparin) is on record as “reduced hESC survival”.

On to heparin, for which, in the data set with hESCs [2] (basal media once BMP4 was supplemented), the hESC viability entry is “improve hESC viability”.

Turning to `NC(=O)c1ccc(-c2nc(-c3ccc4c(c3)OCO4)c(-c3ccccn3)[nH]2)cc1` [SB, SB431542], in data set [1] (setting [4]), the brachyury expression entry is “significant increase in brachyury expression”.

For laminin, in the data set on hESCs (line UCO6 (HSF6)) (end of the second week (14 days)), the “number of cells per colony” value is given as “indistinguishable”. The “adhesion and spreading of hESC embryoid bodies/colonies” value in the data set on hESCs (line UCO6 (HSF6)) (feeder-free, within the first week) is given as “adhered”. The “percentage of neurons (NF200 positive cells)” value in the data set with rNSCs (7 d) and with rNSCs (14 d) was “higher percentage of neurons” each time.

B1: noggin: BMP4 antagonist protein; mouse recombinant noggin (protein, UniProt P97466 28-232, looked up)
Noggin: QHYLHIRPAPSDNLPLVDLIEHPDPIFDPKEKDLNETLLRSLLGGHYDPGFMATSPPEDRPGGGGGPAGGAEDLAELDQLLRQRPSGAMPSEIKGLEFSEGLAQGKKQRLSKKLRRKLQMWLWSQTFCPVLYAWNDLGSRFWPRYVKVGSCFSKRSCSVPEGMVCKPSKSVHLTVLRWRCQRRGGQRCGWIPIQYPIISECKCSC
In the case of B1, the multinucleated cells entry in the data set on hESCs [3] was “absent”. Further, in the data set with hESC, the “efficiency of producing Nestin-positive cells” value is given as around 100% and the “time to produce Nestin-positive cells” value is 3 to 7 days.
